Reference: patent US20220119354A1, “DIAMINO-SUBSTITUTED PYRIDINES AND PYRIMIDINES AS HERBICIDES” (FMC Corporation, priority 2019, published 2022)

How the values were obtained:
Assay type in all cases: in vivo
[1] = tested on: barnyardgrass (Echinochloa crus-galli); test: Test B flooded paddy test, barnyardgrass; conditions: Flood, 250 g ai/ha, applied to paddy water, 2-leaf stage, visual evaluation after 13 to 15 d
Outline: (§1)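 Growth to two leaves preceded treatment. Flooding to 3 cm above soil surface, then water-applied compound; depth kept constant. Scored visually relative to controls after 13–15 d greenhouse; 100 means full control.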

[2] = tested on: blackgrass (Alopecurus myosuroides); test: Test A postemergence, blackgrass; conditions: 0 to 100 scale, 0 no effect, 100 complete control
Outline: (§2)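 Greenhouse pot test, loam/sand soil. Pre: directed soil spray at planting; post: foliar spray at 1–2 leaf stage (2–10 cm). Chemical in non-phytotoxic solvent + surfactant. Visual rating ~10 d, 0 = no effect, 100 = complete control.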

[3] = tested on: kochia (Kochia scoparia); test: Test A preemergence, kochia; conditions: 0 to 100 scale, 0 is no effect, 100 is complete control
Outline: as §2

[4] = tested on: wheat (Triticum aestivum); test: Test A postemergence, wheat; conditions: 0 to 100 scale, 0 no effect, 100 complete control
Outline: as §2

[5] = tested on: ragweed (common ragweed, Ambrosia elatior); test: Test A postemergence, ragweed; conditions: 0 to 100 scale, 0 no effect, 100 complete control
Outline: as §2

[6] = tested on: sedge, umbrella (small-flower umbrella sedge, Cyperus difformis); test: Test B flooded paddy test, umbrella sedge; conditions: Flood, 250 g ai/ha, applied to paddy water, 2-leaf stage, visual evaluation after 13 to 15 d
Outline: as §1

[7] = tested on: ducksalad (Heteranthera limosa); test: Test B flooded paddy test, ducksalad; conditions: Flood, 250 g ai/ha, applied to paddy water, 2-leaf stage, visual evaluation after 13 to 15 d
Outline: as §1

[8] = tested on: barnyardgrass (Echinochloa crus-galli); test: Test A preemergence, barnyardgrass; conditions: 0 to 100 scale, 0 is no effect, 100 is complete control
Outline: as §2

[9] = tested on: pigweed (Amaranthus retroflexus); test: Test A postemergence, pigweed; conditions: 0 to 100 scale, 0 no effect, 100 complete control
Outline: as §2

[10] = tested on: ryegrass, Italian (Lolium multiflorum); test: Test A preemergence, Italian ryegrass; conditions: 0 to 100 scale, 0 is no effect, 100 is complete control
Outline: as §2

[11] = tested on: ryegrass, Italian (Lolium multiflorum); test: Test A postemergence, Italian ryegrass; conditions: 0 to 100 scale, 0 no effect, 100 complete control
Outline: as §2

[12] = tested on: pigweed (Amaranthus retroflexus); test: Test A preemergence, pigweed; conditions: 0 to 100 scale, 0 is no effect, 100 is complete control
Outline: as §2

[13] = tested on: ragweed (common ragweed, Ambrosia elatior); test: Test A preemergence, ragweed; conditions: 0 to 100 scale, 0 is no effect, 100 is complete control
Outline: as §2

[14] = tested on: galium (catchweed bedstraw, Galium aparine); test: Test A postemergence, galium; conditions: 0 to 100 scale, 0 no effect, 100 complete control
Outline: as §2

[15] = tested on: kochia (Kochia scoparia); test: Test A postemergence, kochia; conditions: 0 to 100 scale, 0 no effect, 100 complete control
Outline: as §2

[16] = tested on: corn (Zea mays); test: Test A postemergence, corn; conditions: 0 to 100 scale, 0 no effect, 100 complete control
Outline: as §2

[17] = tested on: rice (Oryza sativa); test: Test B flooded paddy test, rice; conditions: Flood, 250 g ai/ha, applied to paddy water, 2-leaf stage, visual evaluation after 13 to 15 d
Outline: as §1

[18] = tested on: foxtail, giant (Setaria faberii); test: Test A postemergence, giant foxtail; conditions: 0 to 100 scale, 0 no effect, 100 complete control
Outline: as §2

[19] = tested on: foxtail, giant (Setaria faberii); test: Test A preemergence, giant foxtail; conditions: 0 to 100 scale, 0 is no effect, 100 is complete control
Outline: as §2

[20] = tested on: barnyardgrass (Echinochloa crus-galli); test: Test A postemergence, barnyardgrass; conditions: 0 to 100 scale, 0 no effect, 100 complete control
Outline: as §2

SMILES	Plant response rating, Barnyardgrass (0 to 100 scale, 0 is no effect, 100 is complete control) [1]	Plant response rating, Blackgrass ([2]; 125 g ai/ha)	Plant response rating, Blackgrass ([2]; 500 g ai/ha)	Kochia plant response rating ([3]; 125 g ai/ha)	Kochia plant response rating ([3]; 500 g ai/ha)	Plant response rating, Wheat ([4]; 125 g ai/ha)	Plant response rating, Wheat ([4]; 500 g ai/ha)	Plant response rating, Ragweed ([5]; 125 g ai/ha)	Plant response rating, Ragweed ([5]; 500 g ai/ha)	Plant response rating, Sedge, Umbrella (0 to 100 scale, 0 is no effect, 100 is complete control) [6]	Plant response rating, Ducksalad (0 to 100 scale, 0 is no effect, 100 is complete control) [7]	Barnyardgrass plant response rating ([8]; 125 g ai/ha)	Barnyardgrass plant response rating ([8]; 500 g ai/ha)	Plant response rating, Pigweed ([9]; 125 g ai/ha)	Plant response rating, Pigweed ([9]; 500 g ai/ha)	Ryegrass, Italian plant response rating ([10]; 125 g ai/ha)	Ryegrass, Italian plant response rating ([10]; 500 g ai/ha)	Plant response rating, Ryegrass, Italian ([11]; 125 g ai/ha)	Plant response rating, Ryegrass, Italian ([11]; 500 g ai/ha)	Pigweed plant response rating ([12]; 125 g ai/ha)	other results
Cc1ccc2c(C(C)Nc3ncc(C(F)(F)F)c(N)n3)coc2c1 (stereo not drawn) [Compound 85]	0	40	50	30	90	30	30	50	90	85	30	70	100	90	10	40	50	50	60	100	Pigweed plant response rating ([12]; 500 g ai/ha): 100; Ragweed plant response rating ([13]; 125 g ai/ha): 90; Ragweed plant response rating ([13]; 500 g ai/ha): 100; Plant response rating, Galium ([14]; 125 g ai/ha): 80; Plant response rating, Galium ([14]; 500 g ai/ha): 90; Plant response rating, Kochia ([15]; 125 g ai/ha): 70; Plant response rating, Kochia ([15]; 500 g ai/ha): 90; Plant response rating, Corn ([16]; 125 g ai/ha): 10; Plant response rating, Corn ([16]; 500 g ai/ha): 40; Plant response rating, Rice (0 to 100 scale, 0 is no effect, 100 is complete control) [17]: 0; Plant response rating, Foxtail, Giant ([18]; 125 g ai/ha): 40; Plant response rating, Foxtail, Giant ([18]; 500 g ai/ha): 90; Foxtail, Giant plant response rating ([19]; 125 g ai/ha): 70; Foxtail, Giant plant response rating ([19]; 500 g ai/ha): 100; Plant response rating, Barnyardgrass ([20]; 125 g ai/ha): 50; Plant response rating, Barnyardgrass ([20]; 500 g ai/ha): 80
CC(Nc1ncc(C(F)(F)F)c(N)n1)c1cc2ccc(F)c(F)c2s1 (stereo not drawn) [Compound 86]	60	0	10	80	100	0	0	20	80	98	75	70	90	90	100	20	70	0	50	100	Pigweed plant response rating ([12]; 500 g ai/ha): 100; Ragweed plant response rating ([13]; 125 g ai/ha): 100; Ragweed plant response rating ([13]; 500 g ai/ha): 100; Plant response rating, Galium ([14]; 125 g ai/ha): 70; Plant response rating, Galium ([14]; 500 g ai/ha): 70; Plant response rating, Kochia ([15]; 125 g ai/ha): 70; Plant response rating, Kochia ([15]; 500 g ai/ha): 90; Plant response rating, Corn ([16]; 125 g ai/ha): 0; Plant response rating, Corn ([16]; 500 g ai/ha): 0; Plant response rating, Rice (0 to 100 scale, 0 is no effect, 100 is complete control) [17]: 0; Plant response rating, Foxtail, Giant ([18]; 125 g ai/ha): 60; Plant response rating, Foxtail, Giant ([18]; 500 g ai/ha): 60; Foxtail, Giant plant response rating ([19]; 125 g ai/ha): 70; Foxtail, Giant plant response rating ([19]; 500 g ai/ha): 100; Plant response rating, Barnyardgrass ([20]; 125 g ai/ha): 40; Plant response rating, Barnyardgrass ([20]; 500 g ai/ha): 50
